Laboratory results reported in PMC11696576, “Next generation thiazolyl ketone inhibitors of cytosolic phospholipase A2 α for targeted cancer therapy” (Nature Communications, 2025).
Where “and” joins values, the source holds several entries; their conditions need not be identical. Equal values may be shown once.

Key:
Type in all cases: cell-based, human
[1] = system: HL-60 cells; assay: cell viability, resazurin assay, HL-60; conditions: for cell viability relative to 0 µM = 100 (Figure S7b): listed as AVX420
Excerpt: Bjørn Tore Gjertsen (University of Bergen, Norway). […] The cell lines were not authenticated.
Figure S7. Sensitivity of cell lines derived from hematological malignancies. a. cell viability expressed as relative light units ( RLU) is plotted for all cell lines in the screen that were de-rived from hematological malignancies. b. corresponding IC50 values calculated by non-linear regression analysis. c. Cell viability assessed by resazurin assays in MV-4-11 and HL-60 cells.
Data were normalized to the vehicle-treated control (100%) and are the mean of 4 biological replicates ±stdev (MV-4-11) and 5 biological replicates ±stdev (HL-60), Non-linear regres- […]

[2] = system: Jurkat E6.1 cells; assay: intracellular ROS, ROS-red staining and flow cytometry, Jurkat E6.1; set-up: ROS Negative Cells / ROS Negative Cells (Figure S9 a) / ROS Negative Cells (Figure S9c): unit not given here; conditions: for ROS Negative Cells (Figure S9 a) / ROS Positive Cells (Figure S9 a): replicates; for ROS Negative Cells (Figure S9 a) / ROS Positive Cells (Figure S9 a) / ROS Negative Cells / ROS Positive Cells: listed as AVX420; for ROS Negative Cells (Figure S9c) / ROS Positive Cells (Figure S9c): rep1, rep2
Protocol: Data are the mean ± stdev of 3 biological replicates. […] Data are the mean ± stdev of 3 biological replicates.
Rather, when combined with AVX420, exogenous AA augmented cell death (Fig. 6e). […] The response occurred within 1 h, peaked at 8–12 h, and preceded the loss of cell viability (Fig. S9a, b).
After treatment, cells were stained with cellular ROS Assay Kit (Cat. No. ab186029; Abcam, Cambridge, United Kingdom) following the manufacturer’s instructions, and ROS-positive cells were quantified by flow cytometry using either the NovoCyte flow cytometer, and Novoexpress Software v1.5.0 from Agilent Technologies (Santa Clara, USA) or the CytoFLEX flow cytometer and CytExpert analysis software v 2.5 from Beckman Coulter (California, United States). An example showing the gating strategy used to assess ROS-Red staining is found in Fig. S9d.

[3] = system: whole blood; assay: eicosanoid release from LPS-stimulated whole blood; set-up: LTB4 / 5-HETE / 11,12-EET / 12-HETE: unit not given here; conditions: for 15-HETE level, whole blood / PGE2 level, whole blood / TxB2 level, whole blood: individual replicate
Excerpt: In whole blood, bacterial lipopolysaccharide (LPS) stimulated the release of PGE2, thromboxane B2 (TXB2), and 15-hydroxyeicosatetraenoic acid (HETE). […] The levels of leukotriene B4 (LTB4), 12-HETE, 5-HETE and 11,12-epoxyeicosatrienoic acid (EET) were not affected by LPS stimulation but increased when exogenous AA was included, irrespective of the presence of GK420 (Fig. S1a).
Fig. 3 Ex vivo suppression of eicosanoid production by GK420. a Eicosanoid levels (pmol/mL) in the plasma of whole blood pretreated with vehicle (DMSO), 3, 10 or 30 µM GK420,) 10 µM arachidonyl trifluoromethyl ketone (ATK), or 1 μM indomethacin (Indo) before stimulation with 1 µg/mL LPS for 24 h. […] All box and whisker plots show the mean (center line), stdev (box), and min and max values (whiskers) from 4 biological replicates. P-values were determined using RM-one way ANOVA with Dunnett’s correction for multiple comparisons.
Aliquots of 0.4 mL of heparinized whole blood were mixed with 1.6 mL of serum-free RPMI cultivation medium with- or without indomethacin (# I7378, Sigma-Aldrich), GK420, or arachidonyl trifluoromethyl ketone (ATK) (Cayman #62120), prior to the addition of lipopolysaccharides (LPS) (1 μg/mL) to activate the cPLA2α enzyme (LPS was from E. coli 026:B6 γ-irradiated, #L2654, Sigma-Aldrich). Exogenous arachidonic acid (5–10 µM) (#3555, Sigma-Aldrich) was added after 23.5 h, for the final 30 mins of the 24 h stimulation. Following treatment (24 h, 37 °C, 5% CO2), the diluted blood was centrifuged (5992 × g for 10 min at 4 °C) to isolate the plasma from the cell fraction. Plasma samples were stored at −80 °C until analysis. Samples were analyzed at the Lipid Maps Consortium, UCSD according to the standard methods. 200 µL of sample was subjected to solid phase extraction of the eicosanoids using the StrataX solid phase extraction columns from Phenomenex and analyzed by UHPLC-MS/MS using full standards mix.

[4] = 10 uM + LPS + AA, listed as AVX420

CCCCCCCOc1ccc(OCC(=O)c2nc(C(=O)OC)cs2)cc1 [GK420]
cell viability relative to 0 µM = 100 (Figure S7b) ([1]; HL-60, 1 µM, rep1-5): 97.3013 and 90.6778 and 115.865 and 99.353 and 90.3923
cell viability relative to 0 µM = 100 (Figure S7b) ([1]; HL-60, 3 µM, rep1-5): 90.5903 and 85.7617 and 98.8696 and 77.2301 and 87.8872
cell viability relative to 0 µM = 100 (Figure S7b) ([1]; HL-60, 5 µM, rep1-5): 71.3359 and 44.5692 and 65.87 and 61.5884 and 62.96
cell viability relative to 0 µM = 100 (Figure S7b) ([1]; HL-60, 7 µM, rep1-5): 63.2164 and 43.3688 and 54.7108 and 42.3668 and 54.7116
cell viability relative to 0 µM = 100 (Figure S7b) ([1]; HL-60, 10 µM, rep1-5): 36.7957 and 43.3263 and 38.5629 and 49.5907
cell viability relative to 0 µM = 100 (Figure S7b) ([1]; HL-60, 12 µM, rep1-5): 32.4548 and 37.5058 and 42.0594 and 45.299
cell viability relative to 0 µM = 100 (Figure S7b) ([1]; HL-60, 15 µM, rep1-5): 31.4644 and 36.8417 and 35.3195 and 49.7069
cell viability relative to 0 µM = 100 (Figure S7b) ([1]; HL-60, 20 µM, rep1-5): 29.4668 and 34.076 and 29.9279 and 43.7902
viability at 10 µM ([1]; Homo sapiens, HL-60, HL-60, 10 µM, rep1-5, read-out: cell viability relative to 0 µM = 100 (Figure S7b)): 49.4%
viability at 12 µM ([1]; Homo sapiens, HL-60, HL-60, 12 µM, rep1-5, read-out: cell viability relative to 0 µM = 100 (Figure S7b)): 45.2%
viability at 15 µM ([1]; Homo sapiens, HL-60, HL-60, 15 µM, rep1-5, read-out: cell viability relative to 0 µM = 100 (Figure S7b)): 42.5%
viability at 20 µM ([1]; Homo sapiens, HL-60, HL-60, 20 µM, rep1-5, read-out: cell viability relative to 0 µM = 100 (Figure S7b)): 36.3%
IC50 ([1]; Homo sapiens, HL-60, resazurin assay): 4.6 µM
ROS Negative Cells (Figure S9 a) ([2]; 1h): 68 and 69 and 77 and 81
ROS Positive Cells (Figure S9 a) ([2]; 1h): 31 and 23 and 19 and 32
ROS Negative Cells (Figure S9 a) ([2]; 2h): 46 (2×) and 47 (2×) and 51 and 54 and 50 and 48
ROS Positive Cells (Figure S9 a) ([2]; 2h): 53 (2×) and 49 and 46 and 50 and 54 (2×) and 52
ROS Negative Cells (Figure S9 a) ([2]; 4h): 33 (2×) and 32 and 37 and 30 and 29 and 34 (2×)
ROS Positive Cells (Figure S9 a) ([2]; 4h): 67 (2×) and 68 and 63 and 70 and 71 and 66 (2×)
ROS Negative Cells (Figure S9 a) ([2]; 8h): 26 and 27
ROS Positive Cells (Figure S9 a) ([2]; 8h): 73 and 74
ROS Negative Cells (Figure S9 a) ([2]; 12h): 18 and 19 and 21 and 16
ROS Positive Cells (Figure S9 a) ([2]; 12h): 81 and 79 and 84 and 82
ROS Negative Cells (Figure S9 a) ([2]; 16h): 21 and 22 and 18 (2×) and 17 and 19
ROS Positive Cells (Figure S9 a) ([2]; 16h): 78 and 82 (2×) and 83 and 81 and 79
ROS Negative Cells (Figure S9 a) ([2]; 20h): 14 and 13 and 15
ROS Positive Cells (Figure S9 a) ([2]; 20h): 87 and 85 and 86
ROS Negative Cells (Figure S9 a) ([2]; 24h): 13 and 15 and 16
ROS Positive Cells (Figure S9 a) ([2]; 24h): 85 and 84 and 87
ROS Negative Cells (Figure S9c) ([2]; AVX420 0.5 µM + AA 20 µM): 80 and 83
ROS Positive Cells (Figure S9c) ([2]; AVX420 0.5 µM + AA 20 µM): 20 and 17
ROS Negative Cells (Figure S9c) ([2]; AVX420 0.5 µM + Lip 5 µM): 98 and 99
ROS Positive Cells (Figure S9c) ([2]; AVX420 0.5 µM + Lip 5 µM): 2 and 1
ROS Negative Cells (Figure S9c) ([2]; AVX420 0.5 µM): 80 and 76
ROS Positive Cells (Figure S9c) ([2]; AVX420 0.5 µM): 20 and 24
ROS Negative Cells ([2]; Jurkat E6.1, 0.25 µM): 78 and 75 and 60 and 66
ROS Positive Cells ([2]; Jurkat E6.1, 0.25 µM): 22 and 25 and 40 and 34
ROS Negative Cells ([2]; Jurkat E6.1, 0.5 µM): 46 and 45 and 51
ROS Positive Cells ([2]; Jurkat E6.1, 0.5 µM): 54 and 55 and 49
ROS Negative Cells ([2]; Jurkat E6.1, 1 µM): 19 and 21 and 30 and 22
ROS Positive Cells ([2]; Jurkat E6.1, 1 µM): 81 and 79 and 70 and 78
ROS Positive Cells ([2]; Jurkat E6.1, 2 µM): 95 and 93 and 89 and 92
intracellular ROS (iROS) ([2]; Jurkat E6.1, 4 h): dose-dependent increase
15-HETE level, whole blood ([3]; 3 uM + LPS): 0.23 pmol/mL and 1.1 pmol/mL and 0.41 pmol/mL and 0.42 pmol/mL
PGE2 level, whole blood ([3]; 3 uM + LPS): 0.2 pmol/mL and 2.5 pmol/mL and 0.7 pmol/mL and 0.9 pmol/mL
TxB2 level, whole blood ([3]; 3 uM + LPS): 1 pmol/mL and 10.1 pmol/mL and 3.2 pmol/mL and 4.5 pmol/mL
15-HETE level, whole blood ([3]; 10 uM + LPS + AA): 68.15 pmol/mL and 72.88 pmol/mL and 78.71 pmol/mL and 78.11 pmol/mL
PGE2 level, whole blood ([3]; 10 uM + LPS + AA): 11.8 pmol/mL and 18.9 pmol/mL and 15.6 pmol/mL and 18.2 pmol/mL
TxB2 level, whole blood ([3]; 10 uM + LPS + AA): 14.6 pmol/mL and 27.5 pmol/mL and 24.1 pmol/mL and 18.1 pmol/mL
5-HETE [3, 4]: 59.11 and 60.82 and 63.51 and 71.56
11,12-EET [3, 4]: 12.46 and 11.85 and 10.02 and 12.34
12-HETE [3, 4]: 73 and 139.7 and 83.5 and 77.9
LTB4 [3, 4]: 0.6 and 0.8
15-HETE level, whole blood ([3]; 10 uM + LPS): 0.65 pmol/mL and 0.26 pmol/mL and 0.51 pmol/mL and 0.31 pmol/mL
PGE2 level, whole blood ([3]; 10 uM + LPS): 1.7 pmol/mL and 0.3 pmol/mL and 0.7 pmol/mL and 0.1 pmol/mL
TxB2 level, whole blood ([3]; 10 uM + LPS): 8.4 pmol/mL and 1.9 pmol/mL and 2.9 pmol/mL and 0.8 pmol/mL
15-HETE level, whole blood ([3]; 30 uM + LPS): 0.31 pmol/ml (2×) and 0.35 pmol/ml and 0.42 pmol/ml
PGE2 level, whole blood ([3]; 30 uM + LPS): 0.05 pmol/ml and 0.4 pmol/ml and 0.1 pmol/ml (2×)
TxB2 level, whole blood ([3]; 30 uM + LPS): 0.2 pmol/mL and 3.4 pmol/mL and 1.2 pmol/mL and 1.5 pmol/mL
production of PGE2, TXB2 and 15-HETE ([3]; whole blood, LPS): suppressed their production
production of PGE2, TXB2 and 15-HETE with excess free AA ([3]; whole blood, LPS + exogenous free AA): no effect
